Assay [1] relates to plasma ET-1. Briefly: Plasma ET-1 ELISA after IV infusion, indirect measure of ETBR engagement. The class given is in vivo. As to conditions: rats, 250 μg/kg IV infusion. As for the experimental part:
Plasma concentrations of BQ-788 versus BQ-788-B (COMPOUND 1). […] Briefly, rats (N=4 animals per timepoint) were administered either BQ-788 or the deuterated form, BQ-788-B (COMPOUND 1) at a dose of 250 μg/kg via IV infusion. Plasma samples were collected at various time points and ET-1 ELISA performed. BQ788 and BQ788-B are peptide drugs that are rapidly degraded in plasma and thus drug levels are difficult to detect directly. […] As such, plasma levels of ET-1 are commonly used as an indirect measure of BQ-788 biologic activity.

The target in assay [2] is T1, human Endothelin receptor type A (ETA) (Homo sapiens, UniProt P25101).
T1 sequence (P25101 21-427): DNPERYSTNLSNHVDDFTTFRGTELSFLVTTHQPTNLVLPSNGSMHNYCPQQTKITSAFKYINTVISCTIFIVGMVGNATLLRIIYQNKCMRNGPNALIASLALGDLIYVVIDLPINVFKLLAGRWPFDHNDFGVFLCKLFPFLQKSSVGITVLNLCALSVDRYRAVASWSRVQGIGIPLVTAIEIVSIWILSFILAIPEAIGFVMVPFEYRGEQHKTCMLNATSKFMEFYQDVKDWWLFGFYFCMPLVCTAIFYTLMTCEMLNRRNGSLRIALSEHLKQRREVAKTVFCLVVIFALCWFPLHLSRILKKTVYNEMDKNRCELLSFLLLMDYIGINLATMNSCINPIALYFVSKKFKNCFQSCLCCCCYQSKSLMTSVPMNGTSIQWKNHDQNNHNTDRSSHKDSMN
Nature of the assay: ETA (h) cellular antagonist effect. The class given is cell-based. How it is done:
FIGS. 5A and 5B illustrate human (“h”) Endothelin receptor type A (“ETA”) inhibitory effect for A) BQ-788 and B) BQ-788-B (Compound 1), a specifically deuterated ETBR antagonist. Cellular agonist effect was calculated as a % of control response to a known reference agonist for ETA (h), and cellular antagonist effect was calculated as a % inhibition of control reference agonist response for ETA.
Determination of ETA (h) inhibitory effect for BQ-788 and BQ-788-B (COMPOUND 1). […] Cellular agonist effect was calculated as a % of control response to a known reference agonist for ETA (h), and cellular antagonist effect was calculated as a % inhibition of control reference agonist response for ETA.

For assay [3], the system named is V600E+ (BRAF mutated) SM1 tumor. Briefly: Syngeneic melanoma V600E+ (BRAF mutated) SM1 tumor model, tumor volume and IHC. In kind it is in vivo, C57BL/6 mice. How it is done: The syngeneic melanoma model V600E+ (BRAF mutated) SM1 tumor model was used in C57BL/6 mice to assess efficacy of deuterated ETBR antagonists in combination with immunotherapeutics (“B+P”) as compared to a standard treatment, dabrafenib with anti-PD1 (“D+P”). […] In this study 6-8 week old female C57BL/6 mice were inoculated with SM1 tumor fragments (TME* components present). Dosing was initiated when tumors were 150 mm3. The general dosing schemes were as follows: dabrafenib (30 mg/kg daily by oral gavage), immunotherapeutic 10 mg/kg Q4D IP beginning 2 days after dabrafenib), deuterated ETBR antagonist (4 μg administered QOD IV beginning 2 days after dabrafenib). Tumors were measured three times per week, and the study was terminated after 21 days of dosing and IHC analysis of tumors was performed.
TLOs are functionally equivalent to lymph nodes, produce tumor-specific T- and B-cells, and induce long lasting anti-tumor immunity.
FIG. 11 provides table summaries of the results obtained with combination therapies (two- and three-part), TLO formation and efficacy for tumor eradication. The model system tested is as described for FIG. 8. The combinations included dabrafenib+anti-PD1 (“D+P”); dabrafenib+anti-PD1+BQ-788-B (COMPOUND 1) at 0.6 μg (“D+P+B (0.6 μg)”); dabrafenib+anti-PD1+BQ-788-B (COMPOUND 1) at 4.0 μg (“D+P+B (4.0 μg)”); dabrafenib+anti-PD1+BQ-788-B (COMPOUND 1) at 100 μg (“D+P+B (100 μg)”); and anti-PD1+BQ-788-B (COMPOUND 1) at (4.0 μg) (“P+B (4.0 μg)”). […] FIG. 12 presents the efficacy results as a function of tumor volume (mm3).
6 week old female C57BL/6 mice, n=5 per group, were implanted with V600E+ melanoma cancer tumor cells. Once tumors were established, mice were dosed with ETBR antagonists and immune checkpoint inhibitors combination therapy. 21 days post treatment, histological examination was performed, FIG. 20.

Assay [4] concerns the target T2, Recombinant human CXCR4 (Homo sapiens, UniProt P61073).
T2 construct: expressed in transfected cells; host or cells: CHO cells
Briefly: CXCR4 (h) cellular antagonist effect, impedance by dielectric spectroscopy. The class given is cell-based. As to conditions: CHO cells, stimulated with 1 nM SDF-1α, 28° C. How it is done: FIGS. 4A and 4B illustrates human (“h”) CXCR inhibitory effects for, A) BQ-788 and B) BQ-788-B (Compound 1), a specifically deuterated ETBR antagonist. Cellular agonist effect was calculated as a % of control response to a known reference agonist for CXCR4 (h), and cellular antagonist effect was calculated as a % inhibition of control reference agonist response for CXCR4.
Determination of CXCR4 inhibitory effect. The inhibitory effect on CXCR4 (h) was determined for BQ-788 (FIG. 4A), and BQ-788-B (COMPOUND 1) (FIG. 4B). Cellular agonist effect was calculated as a % of control response to a known reference agonist for CXCR4 (h), and cellular antagonist effect was calculated as a % inhibition of control reference agonist response for CXCR4. Recombinant human CXCR4 was expressed in CHO cells, and stimulated with 1 nM SDF-1α and incubated at 28° C. Dielectric spectroscopy was used to measure impedance of the cells.

The subject of assay [5] is bladder cancer tumor cells, MB49-PDIRA-220. Nature of the assay: Syngeneic bladder cancer murine model, tumor volume. In kind it is in vivo, C57BL/6 mice. As to conditions: for anti-bladder cancer treatment efficacy (tumor volume): vs control and single agents. How it is done: 6 week old female C57BL/6 mice, n=5 per group, were implanted with bladder cancer tumor cells, MB49-PDIRA-220 at the right flank. When tumors reached from about 50 mm^3-75 mm^3 in volume, mice were separated into 4 treatment groups: (1) dosed with 4 μg of BQ-788-B (Compound 1) intravenously on days 1, 3, 5, 8, 10, 12 and 15 and with 100 μg of an anti-PD-1 agent intraperitoneally on days 1, 4, 9 and 13; (2) dosed with 4 μg of BQ-788-B (Compound 1) intravenously on days 1, 3, 5, 8, 10, 12 and 15; (3) dosed with 100 μg of an anti-PD-1 agent intraperitoneally on days 1, 4, 9 and 13; or (4) untreated control. Tumor volume measurements were taken every two days post treatment.
6 week old female C57BL/6 mice, n=5 per group, were implanted with bladder cancer tumor cells, MB49-PD1RA-220 at the right flank. When tumors reached from about 100 mm^3 in volume, mice were separated into 4 treatment groups: (1) dosed with BQ-788-B (Compound 1) intravenously on days 1, 3, 5, and 8 with 100 μg of an immunotherapeutic agent, namely an anti-PD-1 antibody intraperitoneally on days 1, 4, 9 and 13 (2) dosed with 4 μg of BQ-788-B (Compound 1) intravenously on days 1, 3, 5, and 8 (3) dosed with 100 μg of an anti-PD-1 agent intraperitoneally on days 1, 4, 9 and 13 or (4) untreated control. Tumor volume measurements were taken 3 times per week. The study was terminated on day 8 due to morbidity of control groups.
6 week old female C57BL/6 mice, n=5 per group, were implanted with bladder cancer tumor cells, MB49-PDIRA-220 at the right flank. When tumors reached from about 25 mm^3-50 mm^3 volume, mice were separated into 4 treatment groups: (1) dosed with 4 μg of BQ-788-B (BQ788) intravenously on days 1, 3, 5, and 8 with 100 μg of an anti-PD-1 agent intraperitoneally on days 1, 4, and 9 (2) dosed with 4 μg of BQ-788-B (BQ788) intravenously on days 1, 3, 5, and 8 (3) dosed with 100 μg of an anti-PD-1 agent intraperitoneally on days 1, 4, and 9 or (4) untreated control. Tumor volume measurements were taken 3 times per week. The study was terminated on day 12 due to morbidity of control groups.

Where [6] appears, read: combination with anti-PD1, histology 21 days after treatment.

Entries after “also recorded” stand apart in the source; their conditions may differ.

T2 sequence (P61073 whole entry): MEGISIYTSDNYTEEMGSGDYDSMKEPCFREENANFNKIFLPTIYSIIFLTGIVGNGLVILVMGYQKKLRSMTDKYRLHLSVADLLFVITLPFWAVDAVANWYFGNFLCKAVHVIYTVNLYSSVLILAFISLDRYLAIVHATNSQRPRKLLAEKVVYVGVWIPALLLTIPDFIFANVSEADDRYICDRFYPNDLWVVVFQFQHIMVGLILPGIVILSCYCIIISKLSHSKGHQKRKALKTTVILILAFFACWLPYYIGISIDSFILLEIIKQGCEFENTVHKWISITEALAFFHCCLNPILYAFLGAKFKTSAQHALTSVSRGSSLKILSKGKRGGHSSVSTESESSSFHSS

For the compound `CCCC[C@@H](NC(=O)[C@@H](Cc1cn(C(=O)OC)c2ccccc12)NC(=O)[C@H](CC(C)(C)C)NC(=O)N1[C@H](C)CCC[C@@H]1C)C(=O)O` [BQ-788, N-[([2R,6S]-2,6-dimethyl-1-piperidinyl)carbonyl]-4-methyl-L-leucyl-N-[(1R)-1-carboxylatopentyl]-1-[methoxycarbonyl]-D-tryptophanamide, reference compound], the “plasma ET-1 transient peak at” value in assay [1] is “about 30 minutes”. In addition, in assay [2], the “IC50, ETA (h) inhibitory effect” value is listed as “not calculable”.

Consider `[2H]CC1CCCC(C[2H])N1C(=O)NC(CC(C)(C)C)C(=O)NC(Cc1cn(C(=O)OC)c2ccccc12)C(=O)NC(CCCC)C(=O)O` (stereo not drawn) [BQ-788-B], for which the “CD8+ TIL staining distribution” value is reported as “diffuse CD8+ TIL staining” in assay [3] (BQ-788-B 0.6 μg + immune checkpoint inhibitor + dabrafenib, 21 days); “peripheral distribution of TILs” in assay [3] (BQ-788-B 4.0 μg + anti-PD1 + dabrafenib, 21 days); “peripheral distribution of TILs” in assay [3] (BQ-788-B 100 μg + anti-PD1 + dabrafenib, 21 days). Moreover, the “interaction with anti-PD1 / anti-oncologic agents” value in assay [3] (combination therapy, tumor volume) is given as “synergistic results; also recorded: synergistic activity; also recorded: restores sensitivity to the anti-PD1 antibody”. In assay [3] (setting [6]), the “lymphocyte infiltration of tumor (CD8+, CD4+, Treg staining)” value is “robust infiltration by CD8+ lymphocytes (TILs); also recorded: strong mobilization of lymphocytes to the tumor”. For the same compound, in assay [3] (setting [6]), the “tertiary lymphoid organ (TLO) formation” value was “most frequently associated with intratumoral TLO formation and tumor reduction; also recorded: induced tertiary lymphoid organ (TLO) formation”. For the same compound, the “tumor outcome (volume, IHC)” value in assay [3] (deuterated ETBR antagonist 4 μg QOD IV + anti-PD1 10 mg/kg Q4D IP, 21 days) is “tumor shrinkage below baseline; also recorded: tumors had been eradicated leaving only residual adipose tissue; also recorded: eradicated the tumors”. In addition, the “IC50, CXCR4 (h) inhibitory effect” value in assay [4] is given as “not calculable”. The “plasma ET-1 prolonged peak out to” value in assay [1] is “about 3 hours”. In addition, in assay [1], the “plasma ET-1 response relative to BQ-788” value was “enhanced duration and amplitude of response; also recorded: enhanced plasma ET-1 concentration”. For the same compound, the “interaction with anti-PD1” value in assay [5] (Example 3), in assay [5] (Example 5) and in assay [5] (Example 6) was “synergy” each time. In addition, the “anti-bladder cancer treatment efficacy (tumor volume)” value is “greatest anti-bladder cancer treatment efficacy” in assay [5] (Example 3: 4 μg IV days 1,3,5,8,10,12,15 + 100 μg anti-PD-1 IP); “greatest anti-bladder cancer treatment efficacy” in assay [5] (Example 5: IV days 1,3,5,8 + 100 μg anti-PD-1 IP, tumors about 100 mm^3 at start); “greatest anti-bladder cancer treatment efficacy” in assay [5] (Example 6: 4 μg IV days 1,3,5,8 + 100 μg anti-PD-1 IP days 1,4,9). Further, the “IC50, ETA (h) inhibitory effect” value in assay [2] is on record as “not calculable”.

Take `CC(C)(C)c1nc(-c2cccc(NS(=O)(=O)c3c(F)cccc3F)c2F)c(-c2ccnc(N)n2)s1` [dabrafenib, reference compound]: the “tumor outcome (volume)” value in assay [3] (dabrafenib 30 mg/kg daily oral gavage + anti-PD1 10 mg/kg Q4D IP, 21 days) is on record as “failed to shrink tumors but demonstrated intermediate tumor growth inhibition”. Also, the “effect of adding dabrafenib to anti-PD1/BQ-788-B combination” value in assay [3] (triple combination, tumor volume) is “impairs efficacy”.

For the origin of these results see patent US12728122B2, “Treatment of urothelial and kidney cancers by use of endothelin B receptor antagonists” (ENB Therapeutics, Inc., priority 2019, dated 2026).
